We go through three molecules from PMC3361267 (Journal of Medicinal Chemistry, 2012).

The test system of series [1] is MDR1. The conditions noted are these: read-out: IC50 (MDR1); cited from earlier work.
Series [2] concerns MRP2. To be noted: read-out: IC50 (MRP2); cited from earlier work.
Series [3] relates to BCRP. To be noted: read-out: IC50 (BCRP); cited from earlier work.
For series [4] the following is noted: cited from earlier work.
Series [5] deals with T1, OATP1B1 (Homo sapiens, UniProt Q9Y6L6).
T1 sequence (Q9Y6L6 1-691): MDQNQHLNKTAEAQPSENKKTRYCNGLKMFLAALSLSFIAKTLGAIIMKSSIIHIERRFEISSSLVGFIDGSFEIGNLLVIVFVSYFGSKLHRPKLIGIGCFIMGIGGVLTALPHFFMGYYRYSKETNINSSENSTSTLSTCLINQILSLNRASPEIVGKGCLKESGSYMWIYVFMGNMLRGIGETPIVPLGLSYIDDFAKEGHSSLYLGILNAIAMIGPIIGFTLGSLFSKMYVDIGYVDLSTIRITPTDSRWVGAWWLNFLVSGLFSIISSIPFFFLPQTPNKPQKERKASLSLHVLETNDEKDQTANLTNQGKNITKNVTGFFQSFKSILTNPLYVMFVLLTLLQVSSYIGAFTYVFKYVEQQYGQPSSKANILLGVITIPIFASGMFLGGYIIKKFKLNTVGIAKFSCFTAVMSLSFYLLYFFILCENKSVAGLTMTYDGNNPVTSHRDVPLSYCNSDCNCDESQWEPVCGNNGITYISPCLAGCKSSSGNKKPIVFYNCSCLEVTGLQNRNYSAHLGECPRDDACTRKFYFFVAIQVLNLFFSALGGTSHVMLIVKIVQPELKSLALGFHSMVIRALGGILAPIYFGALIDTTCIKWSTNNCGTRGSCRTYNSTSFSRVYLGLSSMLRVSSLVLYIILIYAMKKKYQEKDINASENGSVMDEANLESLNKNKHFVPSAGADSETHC
As to the kind of experiment: Transport kinetics of substrate uptake in OATP1B1-HEK293 cells. The class given is cell-based. To be noted: OATP1B1 mediated uptake.

Series [6] deals with T2, OATP1B3 (Homo sapiens, UniProt Q9NPD5).
T2 sequence (Q9NPD5 1-702): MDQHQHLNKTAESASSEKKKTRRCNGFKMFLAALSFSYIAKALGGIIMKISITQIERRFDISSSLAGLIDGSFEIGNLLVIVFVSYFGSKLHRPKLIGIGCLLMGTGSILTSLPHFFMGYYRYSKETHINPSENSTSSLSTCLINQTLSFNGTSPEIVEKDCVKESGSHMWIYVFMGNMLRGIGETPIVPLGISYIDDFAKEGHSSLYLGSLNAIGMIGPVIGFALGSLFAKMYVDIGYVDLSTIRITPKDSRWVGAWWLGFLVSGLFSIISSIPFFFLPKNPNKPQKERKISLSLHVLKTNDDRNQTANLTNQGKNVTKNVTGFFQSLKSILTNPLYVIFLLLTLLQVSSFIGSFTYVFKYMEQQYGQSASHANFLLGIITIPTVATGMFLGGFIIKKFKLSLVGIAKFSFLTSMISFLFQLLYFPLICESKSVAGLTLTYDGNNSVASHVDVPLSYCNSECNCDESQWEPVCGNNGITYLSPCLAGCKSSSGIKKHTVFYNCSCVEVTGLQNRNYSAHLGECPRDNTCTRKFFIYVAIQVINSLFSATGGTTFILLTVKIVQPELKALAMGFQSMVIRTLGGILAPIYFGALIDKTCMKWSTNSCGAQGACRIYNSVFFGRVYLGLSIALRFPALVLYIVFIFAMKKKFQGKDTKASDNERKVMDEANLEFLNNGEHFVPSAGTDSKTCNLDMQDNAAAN

Broadly, the IC50 is the concentration that inhibits the measured activity by half. In the case of `CN(C)C(=O)CCSC(SCCC(=O)O)c1cccc(/C=C/c2ccc3ccc(Cl)cc3n2)c1` (stereo not shown) [MK571], the figures for the IC50 in series [1], in series [2] and in series [3] were 26 µM, 10 µM and 50 µM, respectively.
In the case of `CC[C@H]1OC(=O)[C@H](C)[C@@H](O[C@H]2C[C@@](C)(OC)[C@@H](O)[C@H](C)O2)[C@H](C)[C@@H](O[C@@H]2O[C@H](C)C[C@H](N(C)C)[C@H]2O)[C@](C)(OC)C[C@@H](C)C(=O)[C@H](C)[C@@H](O)[C@]1(C)O` [clarithromycin, Clarithromycin], in series [4], the “increase of atorvastatin AUC” value was 4.5 fold.
As usually defined, the Km is the substrate concentration at which the rate is half of its maximum. On to `C[C@]12CC[C@@H]3c4ccc(O)cc4CC[C@H]3[C@@H]1CC[C@@H]2O[C@@H]1O[C@H](C(=O)O)[C@@H](O)[C@H](O)[C@H]1O` [estradiol-17β-glucuronide], for which, in series [5], the Km came to 12.2 ± 5.94 µM and the Vmax is given as 15.44 ± 3.44 pmol/mg protein/min. Besides, in series [6], the Vmax/Km came out at 0.86 μL/mg protein/min.
